One compound from patent publication US20210196724A1, “BIARYL COMPOSITIONS AND METHODS FOR MODULATING A KINASE CASCADE” (Athenex, Inc., priority 2016, published 2021) can be followed below.

The nature of data set [1]: Pharmacokinetic properties after IV and PO administration. The format is in vivo.
The subject of data set [2] is GL261 glioblastoma cells injected intra-cranially. In words: GL261 murine model of glioblastoma (intra-cranial), survival. The class given is in vivo, C57BL/6 mice. Particulars: orally once per day at 1 mg/kg for 45 days. As to the method: The anti-tumor activity of Compound 121, as a single agent, was studied in the GL261 murine model of human glioblastoma. Murine GL261 glioblastoma cells were injected intra-cranially into syngeneic, immune-competent hosts (C57BL/6). In order for oral therapeutics to be effective, it is required that the therapeutic be able to cross the blood-brain barrier in order to achieve sufficient levels in the brain to exert an anti-tumor effect. Survival was the major endpoint for the study. The mice either succumbed to the tumor or were euthanized based on severity of tumor-dependent morbidity. Mice that achieved long-term survival (>80 days) were re-challenged with a sub-cutaneous injection of GL261 cells to assess the development of a durable immune response to GL261. Mice that underwent the re-challenge phase were not treated with Compound 121.
GL261 cells (1×10^5 cells) were implanted into the brain of a C57BL/6 host using stereotactice injection. Compound 121 was dosed orally once per day at 1 mg/kg (N=10) for 45 days beginning 3 days post-tumor cell implantation. Compound Y was dosed orally once per day at 5 mg/kg (N=10) for 45 days beginning 3 days post-tumor implantation. A vehicle was administered to a control group of mice (N=10) per the same schedule.
Mice were monitored for signs of tumor dependent morbidity, including head tilt, hunching, ataxia, and limb weakness. Mice were euthanized when cumulative signs of high tumor burden were evident.

The next data set concerns U87 cells. As to the kind of experiment: MTT cell growth inhibition (GI50), U87. The class given is cell-based, human. Conditions: 3 days. As to the method:
The drug concentration required to block net cell growth by 50% relative to a control sample is measured as the GI50. The GI50s for several of the compounds of the application were assayed as described.
MTT assay: U87 and GL261 cells were seeded in 96-well plate (6×10^3 cells in 100 μl of DMEM+10% FBS media per well) and incubated overnight at 37° C. with 5% CO2. All test compounds were diluted (10 point 2-fold serial dilution) in a separate 96-well plate to yield 10× of final concentrations (0.5-256 nM). A volume of 11 μl of 10× dilutions was added to appropriate wells (n=3). To value (reflecting the starting number of cells upon drug treatment) was determined by following steps as described below. After 3 days incubation at 37° C. with 5% CO2, 10 μl of MTT solution (5 mg/ml in PBS) was added to each well and plates were incubated at 37° C. for 3 h to allow MTT to form formazan crystals by reacting with metabolically active cells. 100 μl of 20% SDS was added to each well and plates were incubated overnight at 37° C. with 5% CO2. Afterward, OD570 was measured using microplate reader. The cell growth percentage of control was calculated according to percentage of control=(T−T0)/(C−T0)×100% or OD value of the test well exposure to test drug—OD value at time zero/(OD of the control well without drug treatment−OD value at time zero)×100%. Growth inhibition curves and GI50 were determined using GraphPad Prism 5 software.

For data set [3], the system named is U87-luc human glioblastoma subcutaneous xenograft. In words: U87-luc human glioblastoma subcutaneous xenograft tumor model. The format is in vivo, athymic nude mice. The source says: The anti-tumor activity of Compound 121, as a single agent, was studied in a U87-luc human glioblastoma subcutaneous xenograft tumor model. Significant endpoints were used to assess the treatment effects on subcutaneous tumor growth, as determined by tumor growth inhibition.
Human glioblastoma U87 cells (1×10^6 cells) were implanted into the right flank of athymic nude mice via subcutaneous injection. Dosing was initiated when the average tumor size reached 90-100 mm^3, which was designated as Day 1.
Compound 121 was dosed at 5 mg/kg once per day through Days 1-7 and dosed 2.5 mg/kg once per day through Days 15-21. A control group of mice (N=7) was administered a vehicle per the same schedule. Tumor volume was determined every 2 to 3 days via bidimensional caliper measurements. Body weight and general observations were recorded.
The mice were euthanized once the tumor reached 2000 mm^3 in volume.
Tumor growth inhibition (TGI) was calculated with the following formula:
TGI=(1−(mean volume of treated tumors)/(mean volume of control tumors))×100.

Data set [4] in a line: Brain permeability (brain:plasma ratio). The format is in vivo. Particulars: read-out: Brain:Plasma (B:P) Average. The protocol: Brain permeability can be measured by various methods known in the art. For example, brain permeability can be measured by calculating the ratio between the concentration of a compound of the application in the brain and the concentration of the compound in the plasma (i.e., BP ratio). In one aspect, a compound of the application has a B:P ratio of at least 1.0, 1.1, 1.2, 1.3, 1.4, 1.5, 1.6, 1.7, 1.8, 1.9, or 2.0 at 1 hour after administration of the compound to a subject. In one aspect, a compound of the application has a B:P ratio of at least 1.5, 1.6, 1.7, 1.8, 1.9, or 2.0 at 1 hour after administration of the compound to a subject. In one aspect, a compound of the application has a B:P ratio of at least 1.4, 1.5, 1.6, 1.7, 1.8, 1.9, 2.0, 2.1, 2.2, or 2.3 at 2 hours after administration of the compound to a subject. In one aspect, a compound of the application has a B:P ratio of at least 1.9, 2.0, 2.1, 2.2, or 2.3 at 2 hours after administration of the compound to a subject. In one aspect, a compound of the application has a B:P ratio of at least 1.7, 1.8, 1.9, 2.0, 2.1, 2.2, 2.3, 2.4, or 2.5 at 4 hours after administration of the compound to a subject. In one aspect, a compound of the application has a B:P ratio of at least 2.2, 2.3, 2.4, or 2.5 at 4 hours after administration of the compound to a subject.

Where [5] appears, read: in vivo, IV Administration (5 mg/kg).
The mark [6] stands for this setting: Day 12, orally dosed 5 mg/kg once per day Days 1-7.

For `Cc1cc(N2CCOC[C@@H]2C)ccc1-c1ccc(CC(=O)NCc2ccc(F)cc2)nc1` [Compound 121], in data set [1] (IV Administration (5 mg/kg)), the “AUCIV (dose-normalized)” value worked out at 575 kg·ng·h/mL/mg and the t0.5 amounted to 0.959 h. Also, the “F (%) = 100 × AUCpo/AUCIV” value in data set [1] (PO 20 mg/kg vs IV 5 mg/kg) amounted to 34.8%. Moreover, the “AUCPO (dose-normalized)” value in data set [1] (PO Administration (20 mg/kg)) amounted to 199 kg·ng·h/mL/mg. In data set [1] (setting [5]), this compound showed a C0 of 2850 ng/mL and a clearance of 29 mL/min/kg. The Vd in data set [1] (in vivo, IV Administration (5 mg/kg), read-out: Vss) was found to be 2.24 L/kg. In data set [1] (in vivo, PO Administration (20 mg/kg)), this compound registered a Cmax of 2170 ng/mL. The “Survival compared to vehicle control” value in data set [2] is given as “significanly extended survival”. Also, the “Survival beyond 80 days (long term survival)” value in data set [2] (N=10) is listed as 2 of the 10. The compound further yielded a GI50 in the data set with U87 cells of 5.2 nM. In data set [3] (5 mg/kg once per day Days 1-7, 2.5 mg/kg once per day Days 15-21), the “Tumor growth (tumor volumes in individual mice over time)” value was “repressed tumor growth”. The “Mean tumor volume compared to the control group” value in data set [3] (Day 12, P<0.05) was “significantly reduced”. For the same compound, in data set [3] (setting [6]), the “% TGI (tumor growth inhibition)” value was determined as 76.8% and the “Mean Tumor Volume ± SEM” value worked out at 442.9 ± 67.2 mm3. Also, the “Time to terminal sacrifice (based on tumor volume) compared to control” value in data set [3] (P<0.05, 5 mg/kg Days 1-7, 2.5 mg/kg Days 15-21) is listed as “significantly extended”. Further, in data set [4] (time point 0.25 h), the Kp at 0.25 h was determined as 1.08. The Kp at 0.5 h in data set [4] (time point 0.5 h) amounted to 1.37. For the same compound, the Kp at 1 h in data set [4] (time point 1 h) is 1.53. For the same compound, the Kp at 2 h in data set [4] (time point 2 h) is 1.93. For the same compound, the Kp at 4 h in data set [4] (time point 4 h) was determined as 2.29. In addition, the Kp at 6 h in data set [4] (time point 6 h) is 1.66. For the same compound, the Kp at 8 h in data set [4] (time point 8 h) stood at 1.24.
